Assay results reported in PMC10631289 (Bioorganic & medicinal chemistry letters, 2023).

What was measured:
[1] = tested on: GPR3; conditions: cited from earlier work
[2] = tested on: HEK parental cell line; assay: cAMP accumulation in HEK parental cell line; conditions: up to 10 μM
[3] = target: hGPR3 (Homo sapiens, UniProt P46089); assay: cAMP accumulation through hGPR3 stably expressed in HEK293 cells; format: cell-based; conditions: tested up to 100 μM
[4] = tested on: GPR3; conditions: β-arrestin PathHunter assay; cited from earlier work

hGPR3, sequence (P46089 whole entry): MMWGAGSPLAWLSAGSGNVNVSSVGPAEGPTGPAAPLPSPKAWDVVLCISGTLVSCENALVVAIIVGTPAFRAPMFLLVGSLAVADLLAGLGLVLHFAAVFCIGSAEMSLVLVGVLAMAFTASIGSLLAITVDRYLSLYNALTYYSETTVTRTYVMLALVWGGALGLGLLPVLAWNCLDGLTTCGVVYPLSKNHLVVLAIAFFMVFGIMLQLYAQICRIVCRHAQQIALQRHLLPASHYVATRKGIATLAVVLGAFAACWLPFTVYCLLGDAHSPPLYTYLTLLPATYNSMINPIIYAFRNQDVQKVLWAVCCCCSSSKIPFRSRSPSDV

## [Cl-].c1ccc2c(c1)[I+]c1ccccc1-2 [Compound 1, diphenyleneiodonium (DPI) chloride]
[1]; GPR3 activation
  reported EC50 for cAMP accumulation: low micromolar range
[2]
  increase of cAMP: Neither compound increased cAMP
[2]; listed as DPI
  increase of cAMP: but not GPR6, GPR12, or in HEK293 cells alone

## Fc1cccc2c1-c1ccccc1[I+]2 [Compound 34]
[3]
  GPR3 agonist activity in words: inactive

## FC1(F)Oc2cc3c(cc2O1)-c1ccccc1[I+]3 [Compound 38]
[3]
  GPR3 agonist activity in words: inactive

## CCCCCCCCCCCCC/C=C/[C@@H](O)[C@@H](N)COP(=O)(O)O [Compound S1P, sphingosine 1-phosphate]
[1]; CHO or HEK cells, ref 4a, 19
  activation of cAMP accumulation: does not activate
[4]
  activation of GPR3 mediated internalization: does not activate

## c1ccc2c(c1)Cc1ccccc1[I+]2 [Compound 23, 10H-Dibenz[b,e]iodinium]
[3]
  GPR3 agonist activity in words: inactive
